One assay has as its target T1, Papain (Carica papaya) (UniProt P00784).
T1 sequence (whole entry): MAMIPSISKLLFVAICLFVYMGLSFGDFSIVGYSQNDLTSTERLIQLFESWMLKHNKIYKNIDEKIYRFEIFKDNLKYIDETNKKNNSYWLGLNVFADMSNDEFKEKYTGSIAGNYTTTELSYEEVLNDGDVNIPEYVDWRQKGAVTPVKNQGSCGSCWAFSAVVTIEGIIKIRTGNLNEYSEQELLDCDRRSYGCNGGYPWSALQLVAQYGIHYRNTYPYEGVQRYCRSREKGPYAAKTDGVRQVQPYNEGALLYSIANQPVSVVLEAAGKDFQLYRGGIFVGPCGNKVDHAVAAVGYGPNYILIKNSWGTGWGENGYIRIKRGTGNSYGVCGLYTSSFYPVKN
Put plainly: Activity at Carica papaya papain expressed in human A375 cells assessed as 7-amino-4-carbamoylmethylcoumarin release. The assay is classed as cell-based. Particulars: A-375.

The target of assay [1] is Integrin alpha-4/beta-1 (Homo sapiens) (UniProt P05556+P13612). Put plainly: Binding affinity to human integrin alpha4beta1 expressed in human A375 cells by flow cytometry. The assay is classed as cell-based. To be noted: A-375. For orientation: In flow cytometry, cells or beads pass a laser one at a time.

Active and inactive are the calls of the source. No cut-off for these calls is given here. Where a SMILES comes first, the peptide text is derived from it. The star is where a group is joined. ACC = NC(=O)Cc1cc(=O)oc2cc(N*)ccc12

Turning to `CC(C)C[C@H](N)C(=O)N[C@@H](CC(=O)O)C(=O)N[C@H](C(=O)N[C@@H](CCCNC(=N)N)C(=O)N[C@@H](Cc1c[nH]c2ccccc12)C(=O)N[C@@H](CCC(N)=O)C(=O)N[C@@H](Cc1ccc(O)cc1)C(=O)N[C@H](C(=O)N1CCC[C@H]1C(=O)NCC(=O)N[C@@H](CCCCN)C(=O)N[C@@H](Cc1ccccc1)C(=O)N[C@H](C(=O)N[C@H](C(=O)N[C@@H](CCC(N)=O)C(=O)Nc1ccc2c(CC(N)=O)cc(=O)oc2c1)C(C)C)[C@H](C)O)C(C)C)C(C)C`, the Activity at Papain (Carica papaya) came to 15.6 ng/min. Turning to `CC(C)[C@H](NC(=O)[C@@H](NC(=O)[C@H](Cc1ccccc1)NC(=O)[C@H](CCCCN)NC(=O)CNC(=O)[C@@H]1CCCN1C(=O)[C@@H](NC(=O)[C@H](Cc1ccc(O)cc1)NC(=O)[C@H](CCC(N)=O)NC(=O)[C@H](Cc1c[nH]c2ccccc12)NC(=O)[C@@H](N)CCCNC(=N)N)C(C)C)[C@@H](C)O)C(=O)N[C@@H](CCC(N)=O)C(=O)Nc1ccc2c(CC(N)=O)cc(=O)oc2c1` (H-RWQYVPGKFTVQ-{ACC}), the result in assay [1] was inactive.

Source of the values: ChEMBL document CHEMBL1154259, “Cell recognition enhanced enzyme hydrolysis of a model peptide-drug conjugate” (Bioorg Med Chem Lett, 2009).
